Here are results for seven molecules from the supplement of paper PMC11061612.

Each structure is given as a SMILES string.

Common to all, as to assay: combination Emax (second highest fraction inhibited in the dose matrix, 72 h); higher = more inhibition; extreme values may be limits of the assay
One experiment deals with 769-P (Kidney Carcinoma). Put shortly:
(§1)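 Cell lines grown in DMEM/F12 or RPMI with 10% FBS were plated in 1536-well plates and held 24 hours at 37°C, 5% CO2 before 72 hours of exposure to two-drug dose matrices, with DMSO typically at 0.2%. CellTiter-Glo 2.0 luminescence gave viability, which was converted to inhibition. Vehicle wells were set to 0 and blank wells to 1. Combination Emax is the second-highest inhibition in the matrix, and Bliss excess is the observed combination effect minus the expected EA + EB − EA·EB, where EA and EB are the single-agent effects.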

The test system of experiment [1] is A2780 (Ovarian Carcinoma). Put shortly:
as §1

In experiment [2] the test system is CGTH-W-1 (Thyroid Gland Carcinoma). Put shortly: as §1
The test system of the next experiment is EB2 (Burkitt's Lymphoma). In outline:
as §1

For another experiment, the system named is EW-7 (Ewing's Sarcoma). Put shortly: as §1
Experiment [3] has as its system HCC1395 (Breast Carcinoma). Put shortly: as §1
A further experiment has as its system IM-9 (Non-Cancerous). Put shortly:
as §1

Experiment [4] has as its system JHH-2 (Hepatocellular Carcinoma). In outline: as §1
Experiment [5] deals with JHU-022 (Oral Cavity Carcinoma). Put shortly: as §1
In experiment [6] the test system is LU-165 (Small Cell Lung Carcinoma). Put shortly:
as §1

Experiment [7] deals with MDA-MB-436 (Breast Carcinoma). Put shortly:
as §1

Experiment [8] has as its system MHH-ES-1 (Ewing's Sarcoma). Put shortly:
as §1

Experiment [9] concerns NCI-H1651 (Lung Adenocarcinoma). In outline: as §1
The subject of experiment [10] is NCI-H1703 (Squamous Cell Lung Carcinoma). In outline: as §1
Experiment [11] relates to NCI-H2087 (Lung Adenocarcinoma). Put shortly:
as §1

Experiment [12] relates to NCI-H441 (Lung Adenocarcinoma). Put shortly:
as §1

In a further experiment the test system is PEO1 (Ovarian Carcinoma). In outline:
as §1

The test system of experiment [13] is SK-HEP-1 (Hepatocellular Carcinoma). In outline:
as §1

Experiment [14] has as its system SW620 (Colorectal Carcinoma). In outline: as §1
Another experiment deals with WM1552C (Melanoma). Put shortly:
as §1

`CN(CCO)CC[C@H](CSc1ccccc1)Nc1ccc(S(=O)(=O)NC(=O)c2ccc(N3CCC([C@@H](O)c4ccccc4-c4ccc(Cl)cc4)CC3)cc2)cc1S(=O)(=O)C(F)(F)F` [AZD4320] + C[C@@H](Nc1cc(F)cc(F)c1)c1cc(C(=O)N(C)C)cc2c(=O)cc(N3CCOCC3)oc12 [AZD8186] (first compound max 1 µM, 7x7, partner max 3 µM): the “combination Emax” value in the experiment on 769-P (Kidney Carcinoma) stood at 0.341; in experiment [1] it was 0.543; in experiment [2], 0.476; with EB2 (Burkitt's Lymphoma), 0.536; with EW-7 (Ewing's Sarcoma), 0.947; in [3] it was 0.476. The “combination Emax” value was determined as 0.972 in the experiment with IM-9 (Non-Cancerous); 0.77 in experiment [4]; 0.446 in experiment [5]; 0.717 in experiment [6]; 0.459 in experiment [7]; 0.946 in [8]. Also, the “combination Emax” value in [9] amounted to 0.411; in experiment [10], 0.531; in experiment [11], 0.773; in experiment [12], 0.573; in the experiment on PEO1 (Ovarian Carcinoma) it was 0.613; in experiment [13], 0.778. The “combination Emax” value in [14] was 0.84; with WM1552C (Melanoma) it was 0.424.
As to `CN(CCO)CC[C@H](CSc1ccccc1)Nc1ccc(S(=O)(=O)NC(=O)c2ccc(N3CCC([C@@H](O)c4ccccc4-c4ccc(Cl)cc4)CC3)cc2)cc1S(=O)(=O)C(F)(F)F` [AZD4320] + Cc1cc2ncnn2cc1Nc1ncc2c(n1)n(C1CCOCC1)c(=O)n2C [AZD7648] (first compound max 1 µM, 7x7, partner max 10 µM), the “combination Emax” value in the experiment with 769-P (Kidney Carcinoma) was found to be 0.574; in experiment [1], 0.51; in [2], 0.163; in the experiment with EB2 (Burkitt's Lymphoma), 0.431; in the experiment with EW-7 (Ewing's Sarcoma) it was 0.966; in experiment [3], 0.263. For the same molecule, the “combination Emax” value in the experiment with IM-9 (Non-Cancerous) was found to be 0.696; in experiment [4] it was 0.448; in experiment [5], 0.182; in [6] it was 0.516; in experiment [7], 0.177; in experiment [8] it was 0.497. For the same molecule, the “combination Emax” value came to 0.16 in [9]; 0.322 in [10]; 0.286 in experiment [11]; 0.198 in experiment [12]; 0.386 with PEO1 (Ovarian Carcinoma); 0.162 in experiment [13]. Moreover, the “combination Emax” value in [14] is 0.233; with WM1552C (Melanoma), 0.143.
Regarding `CN(CCO)CC[C@H](CSc1ccccc1)Nc1ccc(S(=O)(=O)NC(=O)c2ccc(N3CCC([C@@H](O)c4ccccc4-c4ccc(Cl)cc4)CC3)cc2)cc1S(=O)(=O)C(F)(F)F` [AZD4320] + Cn1cnc2c(F)c(Nc3ccc(Br)cc3Cl)c(C(=O)NOCCO)cc21 [Selumetinib] (first compound max 1 µM, 7x7, partner max 3 µM), the “combination Emax” value in the experiment on 769-P (Kidney Carcinoma) was determined as 0.36; in experiment [1] it was 0.512; in experiment [2], 0.342; with EB2 (Burkitt's Lymphoma), 0.377; in the experiment with EW-7 (Ewing's Sarcoma), 0.968; in [3] it was 0.281. Further, the “combination Emax” value in the experiment on IM-9 (Non-Cancerous) was determined as 1; in experiment [4], 0.452; in experiment [5] it was 0.629; in experiment [6], 0.748; in [7], 0.335; in experiment [8], 0.951. Moreover, the “combination Emax” value stood at 0.39 in experiment [9]; 0.298 in experiment [10]; 0.908 in experiment [11]; 0.522 in [12]; 0.582 in the experiment with PEO1 (Ovarian Carcinoma); 0.603 in experiment [13]. Besides, the results for the “combination Emax” value (in experiment [14]; in the experiment with WM1552C (Melanoma)) were 0.942 and 0.558, respectively.
Take `CN(CCO)CC[C@H](CSc1ccccc1)Nc1ccc(S(=O)(=O)NC(=O)c2ccc(N3CCC([C@@H](O)c4ccccc4-c4ccc(Cl)cc4)CC3)cc2)cc1S(=O)(=O)C(F)(F)F` [AZD4320] + Nc1ccn([C@@H]2O[C@H](CO)[C@@H](O)C2(F)F)c(=O)n1 [Gemcitabine] (first compound max 1 µM, 7x7, partner max 0.3 µM): the “combination Emax” value came out at 0.903 with 769-P (Kidney Carcinoma); 0.893 in experiment [1]; 0.887 in experiment [2]; 0.932 in the experiment on EB2 (Burkitt's Lymphoma); 1 in the experiment on EW-7 (Ewing's Sarcoma); 0.211 in [3]. Also, the “combination Emax” value with IM-9 (Non-Cancerous) is 1; in experiment [4] it was 0.525; in [5] it was 0.787; in experiment [6] it was 0.828; in experiment [7], 0.531; in experiment [8], 0.964. Further, the “combination Emax” value is 0.543 in experiment [9]; 0.915 in experiment [10]; 0.881 in [11]; 0.765 in experiment [12]; 0.607 in the experiment with PEO1 (Ovarian Carcinoma); 0.936 in experiment [13]. The figures for the “combination Emax” value (in experiment [14]; in the experiment with WM1552C (Melanoma)) were 0.871 and 0.817, respectively.
As for `COc1nnc2ccc(N3CCC(c4ccc(OCCN5CCN(C)C(=O)[C@H]5C)cc4)CC3)nn12` [AZD5153] + CN(CC[C@H](CSC1=CC=CC=C1)NC2=C(C=C(C=C2)S(=O)(=O)NC(=O)C3=CC=C(C=C3)N4CCC(CC4)[C@H](C5=CC=CC=C5C6=CC=C(C=C6)Cl)O)S(=O)(=O)C(F)(F)F)CCO [AZD4320] (first compound max 1 µM, 7x7, partner max 1 µM), the “combination Emax” value in experiment [8] worked out at 0.74; in experiment [14] it was 0.84.
The like results for `CC(=O)c1c(C)c2cnc(Nc3ccc(N4CCNCC4)cn3)nc2n(C2CCCC2)c1=O` [Palbociclib] + CN(CC[C@H](CSC1=CC=CC=C1)NC2=C(C=C(C=C2)S(=O)(=O)NC(=O)C3=CC=C(C=C3)N4CCC(CC4)[C@H](C5=CC=CC=C5C6=CC=C(C=C6)Cl)O)S(=O)(=O)C(F)(F)F)CCO [AZD4320] (first compound max 10 µM, 7x7, partner max 1 µM) were, in that order, 0.835 and 0.693.
`C[C@@H](c1ccc2nccn2c1)n1nnc2ncc(-c3cnn(C)c3)nc21` [Savolitinib] + CN(CC[C@H](CSC1=CC=CC=C1)NC2=C(C=C(C=C2)S(=O)(=O)NC(=O)C3=CC=C(C=C3)N4CCC(CC4)[C@H](C5=CC=CC=C5C6=CC=C(C=C6)Cl)O)S(=O)(=O)C(F)(F)F)CCO [AZD4320] (first compound max 1 µM, 7x7, partner max 1 µM): the entries for the “combination Emax” value in experiment [8] and in experiment [14] were 0.404 and 0.207, respectively.
